In brackets after ≈: the same amount, converted by molar mass.
Experiments:
Plasmodium berghei = test: Antimalarial activity against Plasmodium berghei infected in po dosed mouse; type: functional
Eimeria tenella = test: Coccidiostat activity against Eimeria tenella infected in po dosed chicken; type: functional
[1] = test system: Plasmodium vinckei petteri; test: Antimalarial activity against Plasmodium vinckei petteri infected in IOPS OF1 mouse assessed as reduction in parasitemia administered once daily via sc for 4 days; type: functional; conditions: 96 h
Leishmania donovani [2] = test: Antileishmanial activity against Leishmania donovani MHOM/SD/00/1S-2D promastigotes by luminescence assay; type: functional, organism-based
Schistosoma mansoni = test: Antiparasitic activity against Schistosoma mansoni Puerto Rico PR-1 after 48 hrs by fluorescence based lactate release assay; type: functional, organism-based; conditions: Puerto Rico PR-1, 48 h
Trypanosoma brucei [3] = test: Antitrypanosomal activity against bloodstream form of Trypanosoma brucei clone 427-221a measured after 72 hrs by resazurin dye based assay; type: functional
Trypanosoma brucei [4] = test: Antitrypanosomal activity against bloodstream form of Trypanosoma brucei clone 427-221a measured after 72 hrs by microscopic analysis; type: functional
Leishmania donovani [5] = test: Antileishmanial activity against Leishmania donovani MHOM/SD/001S-2D promastigotes transformed from splenic cultures of infected Chester Beatty hamster measured after 48 hrs by CellTiter-Glo luminescent cell viability assay; type: functional, organism-based
Leishmania donovani [6] = test: Antileishmanial activity against Leishmania donovani MHOM/SD/001S-2D […] measured after 48 hrs by CellTiter-Glo luminescent cell viability assay; type: functional, organism-based
Leishmania major [7] = test: Antileishmanial activity against promastigote stage of Leishmania major MHOM/IL/81/Friedlin transformed from lymph node cultures of infected Balb/c mouse measured after 48 hrs by luminometry; type: functional, organism-based
Leishmania major [8] = test: Antileishmanial activity against […] measured after 48 hrs by luminometry; type: functional, organism-based
[9] = test system: Plasmodium vinckei petteri; test: Antimalarial activity against Plasmodium vinckei petteri infected in IOPS OF1 mouse assessed as reduction in parasitemia at 10 mg/kg, sc administered once daily for 4 days relative to control; type: functional; design: scale not given: the % may be the effect or the level left
Toxoplasma gondii = test: Antiparasitic activity against Toxoplasma gondii infected in Scottish Blackface ewes assessed as mortality at 16.8 to 27.9 mg administered daily for 10 days prior to parasitic infection (reference value: 55.2%); type: functional
Cryptosporidium parvum [10] = test: Antiparasitic activity against Cryptosporidium parvum GP-60 subtype 2a A15G2RI infected in human HCT8 cells assessed as inhibition of parasite development at 0.144 uM measured 27 hrs post infection by qPCR analysis; type: functional; conditions: HCT-8, 27 h
Plasmodium falciparum [11] = test: Antimalarial activity against Plasmodium falciparum Nigerian infected in human red blood cells after 48 hrs by [3H]-hypoxanthine incorporation assay; type: functional, organism-based
Plasmodium chabaudi = test: Antiplasmodial activity against Plasmodium chabaudi infected in Swiss mouse assessed as reduction in parasitemia administered twice daily via ip for 4 days starting from 1.5 hrs post infection; type: functional
Plasmodium falciparum [12] = test: Antiplasmodial activity against trophozoite stage of Plasmodium falciparum 3D7 measured after 48 hrs by [3H]-hypoxanthine incorporation assay; type: functional, organism-based
Cryptosporidium parvum [13] = test: Antiparasitic activity against Cryptosporidium parvum infected in CB.17 SCID mouse assessed as faecal parasite load at 3 mg/kg, administered once daily for 3 days by OW50-FITC staining based flow cytometry relative to control; type: functional

CC[C@@]1([C@@H]2O[C@@H]([C@H]3O[C@@]4(COC(=O)O4)[C@H](C)C[C@@H]3C)C[C@@H]2C)CC[C@H]([C@]2(C)CC[C@]3(C[C@H](O)[C@@H](C)[C@@H]([C@@H](C)[C@@H](OC)[C@@H](C)C(=O)O)O3)O2)O1
ED50 (Plasmodium berghei): 0.75 mg/kg

CC[C@@]1([C@@H]2O[C@@H]([C@H]3O[C@@](O)(COS(=O)(=O)c4ccc(C)cc4)[C@H](C)C[C@@H]3C)C[C@@H]2C)CC[C@H]([C@]2(C)CC[C@]3(C[C@H](O)[C@@H](C)[C@@H]([C@@H](C)[C@@H](OC)[C@@H](C)C(=O)O)O3)O2)O1
ED50 (Plasmodium berghei): 1.25 mg/kg

CC[C@@]1([C@@H]2O[C@@H]([C@H]3O[C@@](O)(COC(=O)Nc4ccc(Cl)cc4)[C@H](C)C[C@@H]3C)C[C@@H]2C)CC[C@H]([C@]2(C)CC[C@]3(C[C@H](O)[C@@H](C)[C@@H]([C@@H](C)[C@@H](OC)[C@@H](C)C(=O)[O-])O3)O2)O1.[Na+]
ED50 (Plasmodium berghei): 2 mg/kg

CC[C@@]1([C@@H]2O[C@@H]([C@H]3O[C@@](O)(COC(=O)Nc4ccc(C)cc4)[C@H](C)C[C@@H]3C)C[C@@H]2C)CC[C@H]([C@]2(C)CC[C@]3(C[C@H](O)[C@@H](C)[C@@H]([C@@H](C)[C@@H](OC)[C@@H](C)C(=O)[O-])O3)O2)O1.[Na+]
ED50 (Eimeria tenella): 70 ppm

CO[C@@H]1C[C@@H](C[C@H]2CC[C@H](C)[C@H]([C@@H](C)C(=O)O)O2)O[C@]2(O[C@](C)([C@H]3CC[C@@](C)([C@@H]4O[C@@H]([C@H]5O[C@@](O)(CO)[C@H](C)C[C@@H]5C)C[C@@H]4C)O3)C[C@H]2C)[C@@H]1C [NIGERICIN]
ED50 [1]: 1.8 mg/kg | ED90 [1]: 4.6 mg/kg

CC[C@@H](C(=O)[C@@H](C)[C@@H](O)[C@H](C)[C@@H]1O[C@@H]([C@@H](CC)C(=O)O)CC[C@@H]1C)[C@H]1O[C@]2(C=C[C@@H](O)[C@]3(CC[C@@](C)([C@H]4CC[C@](O)(CC)[C@H](C)O4)O3)O2)[C@H](C)C[C@@H]1C [SALINOMYCIN]
EC50 (Leishmania donovani [2]): 4000 nM | IC50 (Schistosoma mansoni): 32600 nM

CC[C@@]1([C@@H]2O[C@@H]([C@H]3O[C@@](O)(COC(=O)NCCc4ccccc4)[C@H](C)C[C@@H]3C)C[C@@H]2C)CC[C@H]([C@]2(C)CC[C@]3(C[C@H](O)[C@@H](C)[C@@H]([C@@H](C)[C@@H](OC)[C@@H](C)C(=O)[O-])O3)O2)O1.[Na+]
ED50 (Eimeria tenella): 50 ppm

CC[C@@H](C(=O)[C@@H](C)[C@@H](O)[C@H](C)[C@@H]1O[C@@H]([C@@H](CC)C(=O)OCC(F)(F)F)CC[C@@H]1C)[C@H]1O[C@]2(C=C[C@@H](O)[C@]3(CC[C@@](C)([C@H]4CC[C@](O)(CC)[C@H](C)O4)O3)O2)[C@H](C)C[C@@H]1C
MIC (Trypanosoma brucei [3]): 0.1 to 1 µM (≈ 0.0833 to 0.833 µg/mL) | GI50 (Trypanosoma brucei [4]): 57 nM

CC[C@@]1([C@@H]2O[C@@H]([C@H]3O[C@@](O)(COC(=O)Nc4ccc(F)cc4)[C@H](C)C[C@@H]3C)C[C@@H]2C)CC[C@H]([C@]2(C)CC[C@]3(C[C@H](O)[C@@H](C)[C@@H]([C@@H](C)[C@@H](OC)[C@@H](C)C(=O)[O-])O3)O2)O1.[Na+]
ED50 (Eimeria tenella): 70 ppm

CC[C@@]1([C@@H]2O[C@@H]([C@H]3O[C@@](O)(COC(=O)Nc4ccc(I)cc4)[C@H](C)C[C@@H]3C)C[C@@H]2C)CC[C@H]([C@]2(C)CC[C@]3(C[C@H](O)[C@@H](C)[C@@H]([C@@H](C)[C@@H](OC)[C@@H](C)C(=O)[O-])O3)O2)O1.[Na+]
ED50 (Plasmodium berghei): 5 mg/kg

CC[C@@]1([C@@H]2O[C@@H]([C@H]3O[C@@](O)(CO)[C@H](C)C[C@@H]3C)C[C@@H]2C)CC[C@H]([C@]2(C)CC[C@]3(C[C@H](O)[C@@H](C)[C@@H]([C@@H](C)[C@@H](OC)[C@@H](C)C(=O)O)O3)O2)O1
EC50 (Leishmania donovani [5]): 850 nM | EC50 (Leishmania donovani [6]): 230 nM | EC50 (Leishmania major [7]): 90 nM | EC50 (Leishmania major [8]): 380 nM | ED50 [1]: 1.1 mg/kg | ED90 [1]: 3.5 mg/kg | Activity [9]: 100% | Activity (Toxoplasma gondii): 16.7% | inhibition at 0.144 µM (Cryptosporidium parvum [10]): 98%

CC[C@@]1([C@@H]2O[C@@H]([C@H]3O[C@@](O)(COC(=O)Nc4ccc([N+](=O)[O-])cc4)[C@H](C)C[C@@H]3C)C[C@@H]2C)CC[C@H]([C@]2(C)CC[C@]3(C[C@H](O)[C@@H](C)[C@@H]([C@@H](C)[C@@H](OC)[C@@H](C)C(=O)[O-])O3)O2)O1.[Na+]
ED50 (Plasmodium berghei): 5 mg/kg

CC[C@@]1([C@@H]2O[C@@H]([C@H]3O[C@@](O)(COC(=O)Nc4ccc(Oc5ccccc5)cc4)[C@H](C)C[C@@H]3C)C[C@@H]2C)CC[C@H]([C@]2(C)CC[C@]3(C[C@H](O)[C@@H](C)[C@@H]([C@@H](C)[C@@H](OC)[C@@H](C)C(=O)[O-])O3)O2)O1.[Na+]
ED50 (Plasmodium berghei): 8 mg/kg

CC[C@@H](C(=O)[C@@H](C)[C@@H](O)[C@H](C)CCc1c(Br)cc(C)c(O)c1C(=O)[O-])[C@H]1O[C@](CC)([C@H]2CC[C@](O)(CC)[C@H](C)O2)C[C@@H]1C.[Na+]
IC50 (Plasmodium falciparum [11]): 0.069 µg/mL | ED50 (Plasmodium chabaudi): 1.4 mg/kg

CO[C@@H]1[C@@H](OC)[C@H](C)[C@@](O)(CC(=O)O)O[C@H]1[C@H](C)[C@H]1O[C@@]2(CC[C@@](C)([C@H]3CC[C@@](C)([C@@H]4O[C@@H]([C@H]5O[C@](C)(O)[C@H](C)C[C@@H]5C)C[C@@H]4O[C@@H]4C[C@@H](OC)[C@@H](OC)[C@H](C)O4)O3)O2)C[C@H](O)[C@H]1C
EC50 (Plasmodium falciparum [12]): 0.44 nM | Activity (Cryptosporidium parvum [13]): 96%

CCCCNC(=O)[C@H](CC)[C@H]1CC[C@H](C)[C@H]([C@@H](C)[C@H](O)[C@H](C)C(=O)[C@H](CC)[C@H]2O[C@]3(C=C[C@@H](O)[C@]4(CC[C@@](C)([C@H]5CC[C@](O)(CC)[C@H](C)O5)O4)O3)[C@H](C)C[C@@H]2C)O1
MIC (Trypanosoma brucei [3]): 0.1 µM (≈ 0.0806 µg/mL) | GI50 (Trypanosoma brucei [4]): 40 nM

CC[C@@H](C(=O)O)[C@@H]1O[C@@H]([C@@H](C)[C@H](O)[C@H](C)C(=O)[C@H](CC)[C@H]2O[C@]3(C=C[C@@H](O)[C@]4(CC[C@@](C)([C@H]5CC[C@](O)(CC)[C@H](C)O5)O4)O3)[C@H](C)C[C@@H]2C)[C@@H](C)C[C@@H]1C [NARASIN]
EC50 (Leishmania donovani [2]): 2000 nM

CC[C@@]1([C@@H]2O[C@@H]([C@H]3O[C@@](O)(COC(=O)Nc4ccccc4)[C@H](C)C[C@@H]3C)C[C@@H]2C)CC[C@H]([C@]2(C)CC[C@]3(C[C@H](O)[C@@H](C)[C@@H]([C@@H](C)[C@@H](OC)[C@@H](C)C(=O)[O-])O3)O2)O1.[Na+]
ED50 (Plasmodium berghei): 4 mg/kg

CC[C@@]1([C@@H]2O[C@@H]([C@H]3O[C@@](O)(COC(=O)Nc4ccc(Br)cc4)[C@H](C)C[C@@H]3C)C[C@@H]2C)CC[C@H]([C@]2(C)CC[C@]3(C[C@H](O)[C@@H](C)[C@@H]([C@@H](C)[C@@H](OC)[C@@H](C)C(=O)[O-])O3)O2)O1.[Na+]
ED50 (Plasmodium berghei): 16 mg/kg

— ChEMBL document CHEMBL4400515, “Anti-parasitic activity of polyether ionophores” (Eur J Med Chem, 2019)
